The target in data set [1] is rat MAO-A enzyme (Rattus norvegicus (Rat), UniProt P21396). Kind of data set: Rat MAO-A binding, competition for [3H]Ro 41-1049 in rat cerebral cortex. The note with it: 10 nM [3H]Ro 41-1049. As to the method: Compound selectivity for Tau protein was assessed as compared to a broad panel of receptors, enzymes and ion channels. Selectivity profiling of 10 μM compounds against a panel of 81 targets (n=1 with data in duplicate) was performed. Compounds affinity for rat MAO-A enzyme was assessed in rat cerebral cortex by competition experiment for 10 nM [^3H]Ro 41-1049 and increasing concentrations of test compounds. Compounds affinity for human MAO-A enzyme (1 μg/assay, Sigma-Aldrich, Diegem, Belgium) was assessed by saturation binding experiment performed as described above with [^3H]compounds.
Sequence of rat MAO-A enzyme (P21396 whole entry): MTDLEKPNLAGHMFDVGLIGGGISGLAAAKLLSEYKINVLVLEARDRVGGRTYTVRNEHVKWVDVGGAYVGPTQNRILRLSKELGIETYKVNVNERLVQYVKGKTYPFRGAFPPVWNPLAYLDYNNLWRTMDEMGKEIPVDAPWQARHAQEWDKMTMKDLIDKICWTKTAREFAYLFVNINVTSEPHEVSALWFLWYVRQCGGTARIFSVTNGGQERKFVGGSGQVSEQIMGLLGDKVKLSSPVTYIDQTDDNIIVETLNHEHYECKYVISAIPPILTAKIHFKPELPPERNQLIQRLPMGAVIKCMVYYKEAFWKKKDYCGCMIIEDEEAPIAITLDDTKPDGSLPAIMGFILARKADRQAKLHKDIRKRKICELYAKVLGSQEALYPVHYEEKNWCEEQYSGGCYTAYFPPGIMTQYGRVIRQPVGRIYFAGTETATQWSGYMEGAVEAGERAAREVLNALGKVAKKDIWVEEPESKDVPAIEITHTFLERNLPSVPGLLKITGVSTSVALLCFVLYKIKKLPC

For data set [2] the following is noted: brain homogenate.
Procedure: The Brain free faction was carried out in duplicate at a single concentration of 1 μM after 4 h of equilibrium dialysis.
Male Sprague-Dawley Rat (Harlan, Bresso, Italy) brain homogenate were prepared in PBS, pH 7.4 at 25% w/vy using a Precellys 24-dual tissue homogenizer (BERTIN technologies, Montigny-le-Bretonneux, France).
350 μL PBS pH 7.4 was loaded in the other chamber of the insert. The Red device reusable base counting insert containing insert with both samples and buffer was sealed and incubated during 4 h at 37° C., 300 rpm, on an orbital shaker.
At the end of the incubation, all brain samples were diluted 1:1 with PBS and PBS samples were diluted 1:1 with control brain homogenate. All samples were then diluted 1:3 with an internal standard (dextromethorphan 10 ng/mL in acetonitrile, Sigma, St Louis, United states), mixed and centrifuged 5 min at 3000 rpm at 4° C. Supernatant was diluted 1:2 with 0.1% formic acid in water (Biosolve, Dieuze, France) before analysis by LC/MS/MS. The LC system used was an Agilent 1290 (Agilent, Santa Clara, United states) coupled with a API5000 mass spectrometer (ABSciex, Framingham, United states). The software was analyst 1.5.2. (Agilent, Santa Clara, United states), the analytical column was an Aquity UPLC HSS T3 (30×2.1 mm, 1.8 μm, Waters, Saint-Quentin, France) operated at 40° C. Analysis were performed in the gradient described below. Gradient used for LC MS/MS
The Fu brain (%) was calculated using the following equation Fu brain(%)=(1/(1+((1/((fu homogenate)−1)×D)))×100 Where Fu homogenate=peak area ratio buffer/peak area ratio brain and D=dilution factor of the homogenate.

For “N-methyl-5-(9H-pyrrolo[2,3-b:4,5-c′]dipyridin-7-yl)picolinamide [Example 60]”, the “Rat MAO-A Binding INHIB 10 nM” value in data set [1] (10 nM test compound) was −3%. In addition, the “Rat MAO-A Binding INHIB 100 nM” value in data set [1] (100 nM test compound) is −1%. The “Fu Rat Brain” value in data set [2] came to 0.5%.

Values taken from patent US11312716B2, “9H-pyrrolo-dipyridine derivatives” (UCB Biopharma SRL, priority 2015, dated 2022).
